Data on 4 molecules can be found in PubChem BioAssay (NCI).

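Method: 48-hour compound exposure of cells in 96-well plates, five concentrations, linear interpolation of endpoints. TGI marks complete inhibition of growth.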

One assay concerns RPMI-8226 leukemia. As to the kind of experiment: growth of human tumour cells (NCI), 48 h.
`CCCCCCCCCC[C@@H](OC(C)=O)[C@@H]1CC[C@@H]([C@@H]2CC[C@@H]([C@@H](O)CC#C/C=C/CCCCCCC[C@@]3(Sc4ccccc4)C[C@H](C)OC3=O)O2)O1` showed a TGI above 10 µM.
On the same count and under the same terms, next, `O=[N+]([O-])c1ccc(CSc2nncc3[nH]cnc23)cc1`: above 100 µM.
On to `N#CSCC(Cl)=CCl` (mixture of isomers), for which the TGI is above 100 µM.

The next assay concerns HOP-62 NSCLC. Put plainly: growth of human tumour cells (NCI), 48 h.
As to `CCCCCCCCCC[C@@H](OC(C)=O)[C@@H]1CC[C@@H]([C@@H]2CC[C@@H]([C@@H](O)CC#C/C=C/CCCCCCC[C@@]3(Sc4ccccc4)C[C@H](C)OC3=O)O2)O1`, the TGI is above 10 µM.
On the same count and under the same terms, next, `O=[N+]([O-])c1ccc(CSc2nncc3[nH]cnc23)cc1`: above 100 µM; `N#CSCC(Cl)=CCl` (mixture of isomers): above 100 µM; `CCN1CCCc2cc3c(C(F)(F)F)cc(=O)oc3cc21`: above 100 µM.

A further assay deals with MDA-MB-435. As to the kind of experiment: growth of human tumour cells (NCI), 48 h.
`O=[N+]([O-])c1ccc(CSc2nncc3[nH]cnc23)cc1` yielded a TGI above 100 µM.
Same read-out and setting: next, `N#CSCC(Cl)=CCl` (mixture of isomers): above 100 µM.
The same measure, in the same setting: next, `CCN1CCCc2cc3c(C(F)(F)F)cc(=O)oc3cc21`: above 100 µM.

In a further assay the test system is A498 renal. Put plainly: growth of human tumour cells (NCI), 48 h.
In the case of `O=[N+]([O-])c1ccc(CSc2nncc3[nH]cnc23)cc1`, the TGI was above 100 µM.
In turn, `N#CSCC(Cl)=CCl` (mixture of isomers) had a TGI above 100 µM.
On the same count and under the same terms, the figure for `CCN1CCCc2cc3c(C(F)(F)F)cc(=O)oc3cc21` is above 100 µM.

For a further assay, the system named is OVCAR-5 ovarian. Put plainly: growth of human tumour cells (NCI), 48 h.
Turning to `O=[N+]([O-])c1ccc(CSc2nncc3[nH]cnc23)cc1`, the TGI is above 100 µM.
For the molecule `N#CSCC(Cl)=CCl` (mixture of isomers), the TGI is above 100 µM.
On the same count and under the same terms, the figure for `CCN1CCCc2cc3c(C(F)(F)F)cc(=O)oc3cc21` is above 100 µM.

The test system of the next assay is SNB-19 CNS. Put plainly: growth of human tumour cells (NCI), 48 h.
Consider `N#CSCC(Cl)=CCl` (mixture of isomers), for which the TGI is above 100 µM.
In turn, `CCN1CCCc2cc3c(C(F)(F)F)cc(=O)oc3cc21` had a TGI above 100 µM.

The next assay has as its system SF-539 CNS. Put plainly: growth of human tumour cells (NCI), 48 h.
As to `O=[N+]([O-])c1ccc(CSc2nncc3[nH]cnc23)cc1`, the TGI was above 100 µM.
Same read-out and setting: next, `N#CSCC(Cl)=CCl` (mixture of isomers): above 100 µM.
The same measure, in the same setting: the figure for `CCN1CCCc2cc3c(C(F)(F)F)cc(=O)oc3cc21` is above 100 µM.

The subject of another assay is CAKI-1 renal. As to the kind of experiment: growth of human tumour cells (NCI), 48 h.
`CCCCCCCCCC[C@@H](OC(C)=O)[C@@H]1CC[C@@H]([C@@H]2CC[C@@H]([C@@H](O)CC#C/C=C/CCCCCCC[C@@]3(Sc4ccccc4)C[C@H](C)OC3=O)O2)O1` registered a TGI above 10 µM.
With `O=[N+]([O-])c1ccc(CSc2nncc3[nH]cnc23)cc1`, the TGI is above 100 µM.
Still for that read-out and setting: next, `CCN1CCCc2cc3c(C(F)(F)F)cc(=O)oc3cc21`: above 100 µM.

A further assay relates to SK-MEL-28 melanoma. As to the kind of experiment: growth of human tumour cells (NCI), 48 h.
`CCCCCCCCCC[C@@H](OC(C)=O)[C@@H]1CC[C@@H]([C@@H]2CC[C@@H]([C@@H](O)CC#C/C=C/CCCCCCC[C@@]3(Sc4ccccc4)C[C@H](C)OC3=O)O2)O1` returned a TGI above 10 µM.
Still for that read-out and setting: the figure for `O=[N+]([O-])c1ccc(CSc2nncc3[nH]cnc23)cc1` is above 100 µM; for `N#CSCC(Cl)=CCl` (mixture of isomers) it is above 100 µM; for `CCN1CCCc2cc3c(C(F)(F)F)cc(=O)oc3cc21` it is above 100 µM.

For another assay, the system named is HCT-15 colon. Put plainly: growth of human tumour cells (NCI), 48 h.
In the case of `CCCCCCCCCC[C@@H](OC(C)=O)[C@@H]1CC[C@@H]([C@@H]2CC[C@@H]([C@@H](O)CC#C/C=C/CCCCCCC[C@@]3(Sc4ccccc4)C[C@H](C)OC3=O)O2)O1`, the TGI was above 10 µM.
On to `O=[N+]([O-])c1ccc(CSc2nncc3[nH]cnc23)cc1`, for which the TGI is above 100 µM.
Still for that read-out and setting: the figure for `N#CSCC(Cl)=CCl` (mixture of isomers) is above 100 µM; for `CCN1CCCc2cc3c(C(F)(F)F)cc(=O)oc3cc21` it is above 100 µM.

In a further assay the test system is RXF 393 renal. As to the kind of experiment: growth of human tumour cells (NCI), 48 h.
`CCCCCCCCCC[C@@H](OC(C)=O)[C@@H]1CC[C@@H]([C@@H]2CC[C@@H]([C@@H](O)CC#C/C=C/CCCCCCC[C@@]3(Sc4ccccc4)C[C@H](C)OC3=O)O2)O1` gave a TGI above 10 µM.
The same measure, in the same setting: the figure for `N#CSCC(Cl)=CCl` (mixture of isomers) is above 100 µM; for `CCN1CCCc2cc3c(C(F)(F)F)cc(=O)oc3cc21` it is 63.2 µM.

A further assay deals with SNB-75 CNS. As to the kind of experiment: growth of human tumour cells (NCI), 48 h.
`CCCCCCCCCC[C@@H](OC(C)=O)[C@@H]1CC[C@@H]([C@@H]2CC[C@@H]([C@@H](O)CC#C/C=C/CCCCCCC[C@@]3(Sc4ccccc4)C[C@H](C)OC3=O)O2)O1` had a TGI above 10 µM.
Same read-out and setting: next, `O=[N+]([O-])c1ccc(CSc2nncc3[nH]cnc23)cc1`: above 100 µM.
Same read-out and setting: the figure for `N#CSCC(Cl)=CCl` (mixture of isomers) is above 100 µM.
Still for that read-out and setting: the figure for `CCN1CCCc2cc3c(C(F)(F)F)cc(=O)oc3cc21` is 96.7 µM.

The subject of the next assay is SR leukemia. Put plainly: growth of human tumour cells (NCI), 48 h.
In turn, `CCCCCCCCCC[C@@H](OC(C)=O)[C@@H]1CC[C@@H]([C@@H]2CC[C@@H]([C@@H](O)CC#C/C=C/CCCCCCC[C@@]3(Sc4ccccc4)C[C@H](C)OC3=O)O2)O1` came in with a TGI above 10 µM.
Still for that read-out and setting: next, `O=[N+]([O-])c1ccc(CSc2nncc3[nH]cnc23)cc1`: above 100 µM.
Molecule `N#CSCC(Cl)=CCl` (mixture of isomers) had a TGI above 100 µM.

For another assay, the system named is 786-0 renal. Put plainly: growth of human tumour cells (NCI), 48 h.
`CCCCCCCCCC[C@@H](OC(C)=O)[C@@H]1CC[C@@H]([C@@H]2CC[C@@H]([C@@H](O)CC#C/C=C/CCCCCCC[C@@]3(Sc4ccccc4)C[C@H](C)OC3=O)O2)O1` yielded a TGI above 10 µM.
Still for that read-out and setting: next, `O=[N+]([O-])c1ccc(CSc2nncc3[nH]cnc23)cc1`: above 100 µM.
The same measure, in the same setting: the figure for `N#CSCC(Cl)=CCl` (mixture of isomers) is above 100 µM; for `CCN1CCCc2cc3c(C(F)(F)F)cc(=O)oc3cc21` it is above 100 µM.

Another assay concerns KM12 colon. Put plainly: growth of human tumour cells (NCI), 48 h.
As for `CCCCCCCCCC[C@@H](OC(C)=O)[C@@H]1CC[C@@H]([C@@H]2CC[C@@H]([C@@H](O)CC#C/C=C/CCCCCCC[C@@]3(Sc4ccccc4)C[C@H](C)OC3=O)O2)O1`, the TGI was above 10 µM.
The same measure, in the same setting: the figure for `O=[N+]([O-])c1ccc(CSc2nncc3[nH]cnc23)cc1` is above 100 µM; for `N#CSCC(Cl)=CCl` (mixture of isomers) it is above 100 µM.
Same read-out and setting: next, `CCN1CCCc2cc3c(C(F)(F)F)cc(=O)oc3cc21`: above 100 µM.
